# Data: patent US20240309360A1, “TRANS-ACTIVATORS AND METHODS AND USE THEREOF” (THE GOVERNING COUNCIL OF THE UNIVERSITY OF TORONTO, priority 2021, published 2024)
# Test system: EGFP reporter (7×TetO array, basal CMV promoter) in HEK293T reporter cell line
# Assay: TAD-seq pooled activation screen of 60-aa fragments fused to PYL1
# Format: cell-based, human
# Settings: for Hit high GFP: high GFP population (top 1%); for logFC high GFP / logFC medium GFP: log 2 fold change of counts, 100 μM ABA 48 hours; for logFC high GFP: sorted high GFP cells (top 1%) vs unsorted cells; for logFC medium GFP: sorted medium GFP cells (top 2-5%) vs unsorted cells; for Hit medium GFP: medium GFP population (top 2-5%); call rule not given here
# Text: A fragment library of 75 activators identified in our screen was generated, using 60 amino-acid tiles every 20 aa such that every amino acid was represented by three different fragments (FIG. 3A). The pooled fragment library was fused to PYL1 and recruited to the same GFP reporter used in the original ORFeome screen (FIG. 3A). […] The GFP positive population was sorted into two independent replicates, and fragments in each population were quantified by sequencing. However, in contrast to the ORFeome screen, both high GFP cells (top 1%) and medium GFP cells (top 2-5%) were sorted to potentially identify transactivators of different strength.
# Activation domain tiling library generation. A tiling library was generated from 75 proteins identified as activators in the ORFeome screen. Oligonucleotides containing a 5′ adapter […] (SEQ ID NO: 23) and a 3′ adapter […] (SEQ ID NO: 24) to generate a 5′ adapter ([…]) (SEQ ID NO: 11) and a 3′ adapter ([…]) (SEQ ID NO: 12) were synthesized as pooled libraries (Twist Biosciences). 6×50 μl PCR reactions were set up using NEBNext Ultra II Q5 master mix (New England Biolabs) with 5 nM oligos as template. PCR conditions were optimized to find the lowest cycle with a clean visible product at the expected 300 bp length. The thermocycling condition was an initial 30 s at 98° C., then 2 cycles of 98° C. for 10 s, 63° C. for 20 s, and 72° C. for 15 s, followed by 10 more cycles of 98° C. for 10 s and 72° C. for 30 s with a final extension at 72° C. for 5 min. Primers were designed to have Gateway compatible flanking sequences. The resulting libraries were gel extracted by QIAgen gel extraction kit after loading on a 2% TAE gel for 2 hrs at 60V and subsequently cloned into pDONR221 using 20 separate BP reactions in total of 5 μl reactions. The entry plasmid pool was transformed after an overnight reaction into DHSalpha competent E. coli and incubated overnight on LB agar plates containing kanamycin ([…]). Colonies were collected and plasmid DNA purified. 20 LR reactions were then set up as described in the previous section. Each reaction was transformed into NEB 10-beta chemically competent E. coli and grown on LB agar plates containing carbenicillin ([…]) overnight at 30° C. Colonies were counted to ensure >200-fold coverage at each step of cloning, pooled and maxiprepped.
# Pooled activation screens. ORFeome and transactivation tiling libraries tagged at the C-terminus with PYL1 were packaged into lentiviral particles. A clonal EGFP reporter cell line stably co-expressing ABI-dCas9 and a gRNA targeting the promoter were transduced at low multiplicity of infection (MOI) with approximately 30% cell survival after puromycin (1 μg/mL) selection. Untransduced cells under the same condition were fully eliminated. Sufficient cells were transduced to maintain >500 fold coverage of the libraries. Recruitment was induced by treating cells with 100 μM abscisic acid (ABA, Sigma) for 48 hours. In parallel, a control batch of cells were treated with equal total volume of DMSO. Cells were then washed in PBS, treated with dissociation buffer (1 mM EDTA, 10 mM KCl, 150 mM NaCl, 5 mM sodium bicarbonate, 0.1% glucose) and resuspended in flow buffer (5 mM EDTA, 25 mM HEPES pH 7, 1% BSA, PBS). High GFP population for each library, top 1% for ORFeome and two bins of top 1% and the next 4% for the TAD screen, were sorted and their genomic DNA directly extracted using QIAmp DNA Blood Mini Kit (QIAGEN).
# TAD sequencing. Performed nested PCR on the purified genomic DNA using primers targeting T7 promoter and PYL1 of the backbone vector in the first step creating a ˜470 bp product. Products of the first reaction were then pooled and amplified for an additional 10 steps using primers targeting outside the Gateway sites creating a ˜300 bp product. Libraries were quantified on Qubit dsDNA Broad Range kit and paired-end sequenced on an Illumina MIseq with a custom PAGE-purified R1 sequencing primer. […]
Substance,Hit high GFP,logFC high GFP,logFC medium GFP,Hit medium GFP
ATF6-1: 60-aa TAD-seq fragment of ATF6 (MGEPAGVAGTMESPFSPGLFHRLDEDWDSALFAELGYFTDTDELQLEAANETYENNFDNL; listed as Homo sapiens),hit,3.145,1.563,hit
ATF6B-1: 60-aa TAD-seq fragment of ATF6B (MAELMLLSEIADPTRFFTDNLLSPEDWGLQNSTLYSGLDEVAEEQTQLFRCPEQDVPFDG; listed as Homo sapiens),hit,1.917,0.9931,hit
ATMIN-24: 60-aa TAD-seq fragment of ATMIN (NPGPDTQLPSGPAQNPGIDFDIEEFFSASNIQTQTEESELSTMTTEPVLESLDIETQTDF; listed as Homo sapiens),–,1.233,0.988,hit
ATMIN-32: 60-aa TAD-seq fragment of ATMIN (ETQTMSSGFETLGSLFFTSNETQTAMDDFLLADLAWNTMESQFSSVETQTSAEPHTVSNF; listed as Homo sapiens),–,0.6355,0.8198,hit
ATOH1-1: 60-aa TAD-seq fragment of ATOH1 (MSRLLHAEEWAEVKELGDHHRQPQPHHLPQPPPPPQPPATLQAREHPVYPPELSLLDSTD; listed as Homo sapiens),–,0.7218,0.9194,hit
ATXN7L3-2: 60-aa TAD-seq fragment of ATXN7L3 (QEIYADLVEDSCLGFCFEVHRAVKCGYFFLDDTDPDSMKDFEIVDQPGLDIFGQVFNQWK; listed as Homo sapiens),–,0.7654,0.8911,hit
ATXN7L3-4: 60-aa TAD-seq fragment of ATXN7L3 (FEIVDQPGLDIFGQVFNQWKSKECVCPNCSRSIAASRFAPHLEKCLGMGRNSSRIANRRI; listed as Homo sapiens),–,0.7641,0.7514,hit
BRD8-23: 60-aa TAD-seq fragment of BRD8 (KEECFRSGVAEAPVGSKAPSIDGKEELDLAEKMDIAVSYTGEELDFETVGDIIAIIEDKV; listed as Homo sapiens),–,0.5884,0.5915,hit
BRD8-24: 60-aa TAD-seq fragment of BRD8 (IDGKEELDLAEKMDIAVSYTGEELDFETVGDIIAIIEDKVDDHPEVLDVAAVEAALSFCE; listed as Homo sapiens),hit,1.593,1.566,hit
BTBD18-24: 60-aa TAD-seq fragment of BTBD18 (IDCREPYAFDTALLEQPCEAEEYRITSAAATSELEEILDFMLCGSDIEPPIGSLESPGAE; listed as Homo sapiens),–,1.246,0.8561,hit
BTBD18-25: 60-aa TAD-seq fragment of BTBD18 (EEYRITSAAATSELEEILDFMLCGSDIEPPIGSLESPGAEGCRTPTYHLTETGKNWIEGE; listed as Homo sapiens),–,1.471,1.413,hit
C3orf62-11: 60-aa TAD-seq fragment of C3orf62 (NHMCGHCQDSPFKEEAWALLMDKSPQKATDADPGSLKQAFDDHNIVETVLDLEEDYNVMT; listed as Homo sapiens) [Fragment C3orf62-11],hit,6.023,−0.5261,–
C11orf74-1: 60-aa TAD-seq fragment of C11orf74 (MSAHMSGLEIMDEDQLIKDVLDKFLNCHEQTYDEEFLNTFTHLSQDLLLLPGEVEQDVST; listed as Homo sapiens) [Fragment C11orf74-1],hit,2.356,1.551,hit
CITED1-7: 60-aa TAD-seq fragment of CITED1 (LQNWDFGAQAGGAESLSPSAGAQSPAIIDSDPVDEEVLMSLVVELGLDRANELPELWLGQ; listed as Homo sapiens),hit,4.314,1.597,hit
CITED2-11: 60-aa TAD-seq fragment of CITED2 (MPASVAHVPAAMLPPNVIDTDFIDEEVLMSLVIEMGLDRIKELPELWLGQNEFDFMTDFV; listed as Homo sapiens),hit,6.165,0.9491,–
CSRNP1-28: 60-aa TAD-seq fragment of CSRNP1 (DNIEAPHFPLPGLSPPGDASSCFLESLMGFSEPAAEALDPFIDSQFEDTVPASLMEPVPV; listed as Homo sapiens),–,0.5029,0.6955,hit
DDIT3-1: 60-aa TAD-seq fragment of DDIT3 (MAAESLPFSFGTLSSWELEAWYEDLQEVLSSDENGGTYVSPPGNEEEESKIFTTLDPASL; listed as Homo sapiens),hit,2.373,1.502,hit
DDIT3-2: 60-aa TAD-seq fragment of DDIT3 (WYEDLQEVLSSDENGGTYVSPPGNEEEESKIFTTLDPASLAWLTEEEPEPAEVTSTSQSP; listed as Homo sapiens),–,1.138,1.28,hit
ELF4-1: 60-aa TAD-seq fragment of ELF4 (MAITLQPSDLIFEFASNGMDDDIHQLEDPSVFPAVIVEQVPYPDLLHLYSGLELDDVHNG; listed as Homo sapiens),–,0.6626,0.7287,hit
ELF4-2: 60-aa TAD-seq fragment of ELF4 (DDIHQLEDPSVFPAVIVEQVPYPDLLHLYSGLELDDVHNGIITDGTLCMTQDQILEGSFL; listed as Homo sapiens),hit,1.467,1.364,hit
FAM22F-19: 60-aa TAD-seq fragment of FAM22F (PRPQRPAETNAHLPPPRPQRPAETKVPEEIPPEVVQEYVDIMEELLGSHPGDTGEPEGQR; listed as Homo sapiens),–,0.9998,0.9884,hit
FAM22F-20: 60-aa TAD-seq fragment of FAM22F (PAETKVPEEIPPEVVQEYVDIMEELLGSHPGDTGEPEGQREKGKVEQPQEEDGITSDPGL; listed as Homo sapiens),hit,3.214,2.101,hit
FAM22F-22: 60-aa TAD-seq fragment of FAM22F (EKGKVEQPQEEDGITSDPGLLSYIDKLCSQEDFVTKVEAVIHPRFLEELLSPDPQMDFLA; listed as Homo sapiens),hit,4.76,2.325,hit
FAM22F-23: 60-aa TAD-seq fragment of FAM22F (LSYIDKLCSQEDFVTKVEAVIHPRFLEELLSPDPQMDFLALSQELEQEEGLTLAQLVEKR; listed as Homo sapiens),hit,5.822,0.2737,–
